What was measured:
[1] = target: T1, Murine PKD1 kinase domain (Mus musculus, UniProt Q62101, R683W); experiment: PKD1 (Murine Kinase Domain) Enzyme Activity Assay (IMAP fluorescence polarisation); type: biochemical; details: 10 μM ATP, 10 point dose-response
T1 construct: hexahistidine (His6, pFastBac HTb leader) (N); made in house; host or cells: Sf9 insect cells, baculovirus (Bac-to-Bac HT)
T1 sequence (Q62101 with tags, fused parts or gaps R683W): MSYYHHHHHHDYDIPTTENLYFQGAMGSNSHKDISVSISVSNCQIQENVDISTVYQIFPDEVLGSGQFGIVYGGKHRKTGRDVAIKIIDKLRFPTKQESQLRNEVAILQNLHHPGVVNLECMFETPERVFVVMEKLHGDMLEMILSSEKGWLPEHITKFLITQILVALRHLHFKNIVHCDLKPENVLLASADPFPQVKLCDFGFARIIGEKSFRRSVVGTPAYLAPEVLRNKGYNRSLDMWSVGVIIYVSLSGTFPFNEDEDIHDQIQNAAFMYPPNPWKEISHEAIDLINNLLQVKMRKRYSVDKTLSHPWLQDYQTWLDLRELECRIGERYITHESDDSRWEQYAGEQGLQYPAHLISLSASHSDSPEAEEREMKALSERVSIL
From the text: The DNA sequence corresponding to murine PKD1 (see FIG. 1) was inserted into pFastBAc Htb (Invitrogen, USA) at BamH1 and EcoR1 sites using standard molecular biology techniques.
The PKD1 described above was expressed as a hexahistidine tagged protein construct using a commercially available baculoviral expression system that induces protein production in insect cell culture (Bac-to-Bac® HT Baculovirus Expression System, Invitrogen). Protein was typically expressed by inoculating 1 L of sf9 cells with a genetically modified baculovirus containing the gene for the kinase domain of PKD1. Sf9 cells were obtained from ICR Ltd.
Purification of PKD1 was achieved by standard chromatographic procedures. Capture from crude centrifuged lysed cell supernatant was achieved using metal affinity chromatography (GE Healthcare Life Sciences, HiTrap Chelating chromatography column), and fractions showing PKD1 (as assessed by gel electrophoresis and western blot) were further purified by a single purification step. This was a performed using a mono Q anion exchange chromatography system (GE Healthcare Life Sciences, HiTrap HP Q column). […] This protocol describes the method for screening compounds as inhibitors of Protein Kinase D activity in a 384 well microplate format fluorescence polarisation IMAP assay performed using the Biomek FX. […]

PANC-1 cells [2] = experiment: MTT Assay (cell viability); type: cell-based, human; details: 5 μM, 48 hours
Description: The MTT (3-[4,5-dimethylthiazol-2-yl]-2,5-diphenyltetrazolium bromide) assay can be used to assess the effect of compounds on cell viability and proliferation and to determine whether a compound is cytotoxic. In living cells, the tetrazolium salt (MTT) is reduced to a coloured formazan product (1-[4,5-dimethylthiazol-2-yl]3,5-diphenylformazan), which can be quantified. The reduction of MTT is attributed to the mitochondrial function of cells.
PANC-1 cells were seeded into 96 well plates (1×10^4 cells/well in E4+10% FCS) and placed in an incubator at 37° C., 5% CO2 overnight. Cells were serum starved (E4+0.5% FCS) for 16 hours and then treated with an amino-ethyl-amino-aryl (AEAA) compound (XX-032) in full media for 1 hour prior to treatment with Neurotensin (50 nM) for a further 23 hours or 47 hours (in E4+0.5% FCS; total exposure to test compound was 24 hours or 48 hours; 37° C. 5% CO2). At the appropriate timepoint plates were removed from the incubator and the media was aspirated off. 50 μL per well of 2 mg/mL MTT solution was added and the plates were placed back into the incubator for 2.5 to 4 hours. After incubation, the plates were removed from the incubator and the MTT solution was completely aspirated off the cells. […] The plates were read in a 96 well plate reader at 562 nm (Lab Systems, Ascent Multiscan).

PANC-1 cells [3] = experiment: Apoptosis Assay (Caspase-Glo caspase 3/7 activity); type: cell-based, human; details: 5 μM, 48 hours
Description: PANC-1 cells were seeded into 96 well plates (1×10^4 cells/well in E4+10% FCS) and placed in an incubator at 37° C., 5% CO2 overnight. Cells were serum starved (E4+0.5% FCS) for 16 hours and then treated with an amino-ethyl-amino-aryl (AEAA) compound in full media for 1 hour prior to treatment with Neurotensin (NT; 50 nM) for a further 23 hours or 47 hours (in E4+0.5% FCS; total exposure to test compound was 24 hours or 48 hours). Cells were then assayed for Caspase3/7 activity (Caspase-Glo; Promega) according to the manufacturer's instructions.
The Caspase-Glo assay is a homogenous luminescent assay that measures caspase 3 and 7 activities. […] When added to the cell samples, these reagents result in cell lysis, followed by caspase cleavage of the substrate and generation of a luminescent signal produced by luciferase, whereby the luminescence is proportional to the amount of caspase activity present. […]
The depicted columns show the change in viability or induction of apotosis in the presence of an amino-ethyl-amino-aryl (AEAA) compound (XX-032). Cell viability was measured by the MTT assay at two different time points (24 and 48 hours) and induction of apoptosis was measured by the caspase assay at two different time points (24 and 48 hours). The data are expressed as a percentage of the level in the corresponding control.

[4] = target: T2, PKD1 Ser916 phosphorylation in PANC-1 cells (Homo sapiens, UniProt Q15139); experiment: Western Blot 916 (Phospho-Ser916 PKD1) Assay in PDBu-stimulated PANC-1 cells; type: cell-based; details: 2-30 μM compound for 1 hour, then 200 nM PDBu 10 minutes, densitometry of western blot, read-out: IC50 for inhibition of PDBu-stimulated PKD1 Ser916 phosphorylation
T2 construct: endogenous in cells; host or cells: PANC-1 (ATCC CRL-1469)
T2 sequence (Q15139 1-912): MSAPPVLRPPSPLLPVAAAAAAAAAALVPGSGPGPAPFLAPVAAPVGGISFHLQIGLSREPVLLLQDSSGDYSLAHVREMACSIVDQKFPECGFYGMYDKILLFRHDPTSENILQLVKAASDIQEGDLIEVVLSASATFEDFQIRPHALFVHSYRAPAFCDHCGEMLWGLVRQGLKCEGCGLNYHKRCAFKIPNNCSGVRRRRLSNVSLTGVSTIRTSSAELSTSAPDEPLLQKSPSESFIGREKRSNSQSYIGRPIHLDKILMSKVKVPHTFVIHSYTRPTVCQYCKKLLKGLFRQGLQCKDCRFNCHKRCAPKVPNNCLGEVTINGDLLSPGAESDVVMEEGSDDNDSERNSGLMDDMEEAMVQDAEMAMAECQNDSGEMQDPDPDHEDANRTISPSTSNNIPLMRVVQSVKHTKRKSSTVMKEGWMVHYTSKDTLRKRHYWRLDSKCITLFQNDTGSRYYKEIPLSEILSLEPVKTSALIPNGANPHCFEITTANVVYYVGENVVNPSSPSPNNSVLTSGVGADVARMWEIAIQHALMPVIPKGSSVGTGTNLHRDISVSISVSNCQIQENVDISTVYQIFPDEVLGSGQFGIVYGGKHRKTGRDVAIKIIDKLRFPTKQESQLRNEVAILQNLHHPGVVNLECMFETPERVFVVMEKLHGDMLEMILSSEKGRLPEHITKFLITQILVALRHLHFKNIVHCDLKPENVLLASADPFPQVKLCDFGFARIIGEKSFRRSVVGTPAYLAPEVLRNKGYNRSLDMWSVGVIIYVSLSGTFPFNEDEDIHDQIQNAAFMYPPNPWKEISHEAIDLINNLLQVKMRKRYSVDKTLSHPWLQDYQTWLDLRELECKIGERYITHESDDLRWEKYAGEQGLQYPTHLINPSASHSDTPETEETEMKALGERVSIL
Description: Western Blot 916 (Phospho-Ser916 PKD1) Assay
PANC-1 (ATCC CRL-1469) cells were seeded in 6 well plates. After overnight serum starvation of cells, cells were washed twice in 1 mL serum-free media per well, then treatments were added in serum-free media.
Cells were treated with 2 μM, 5 μM, 10 μM, or 30 μM of an amino-ethyl-amino-aryl (AEAA) compound or with 3 μM GF1 (2-[1-(3-Dimethylaminopropyl)-1H-indol-3-yl]-3-(1H-indol-3-yl)-maleimide, a PKC inhibitor), for comparison purposes, for 1 hour. Then, 200 nM PDBu (phorbol, 12,13-dibutyrate) was added to the wells for 10 minutes. Two wells were used per treatment.
Cells were then scraped into lysis buffer (40 μL per well), samples were homogenised, and protein concentration determined. […]
FIG. 4 is a photographic depiction of the western blot analysis of cell lysates of PANC-1 cells which were treated with increasing amounts (2, 5, 10, 30 μM) of an amino-ethyl-amino-aryl (AEAA) compound (XX-032). Cell lysates were analysed using an anti-PKD1 Antibody (middle panel), anti-phospho-PKD1 (Ser916) Antibody (top panel) and anti-tubulin antibody (lower panel).
The shown columns represent the percentage phosphorylation as measured by densitometry of phospho-PKD1 (Ser916) levels. The results were normalised to the measured PKD1 levels and expressed as a percentage of the level of phosphorylation in the PDBu-stimulated control.

PANC-1 cells [5] = experiment: Neurotensin Proliferation Assay (BrdU incorporation, FACS); type: cell-based, human; details: 5 μM compound, 50 nM neurotensin
Description: Neurotensin Proliferation Assay
BrdU incorporation into PANC-1 cells was used to measure DNA synthesis and thus the level of cell proliferation. Cells were seeded in 10 cm^2 cell culture dishes in (1×10^6 cells/well in E4+10% FCS). After serum starvation (24 hours), cells were treated with an amino-ethyl-amino-aryl (AEAA) compound for 1 hour before addition of neurotensin (50 nM final concentration). Cells were then incubated for a further 23 hours before addition of BrdU (10 μM) for the final 1 hour. Samples were fixed using 70% ethanol and labelled with an anti-BrdU antibody (Becton Dickinson Cat No. 347580, Lot No. 13467) followed by a rabbit polyclonal anti-mouse-FITC antibody (DakoCytomation Cat No. F0313, Lot No. 00015066) and propidium iodide. Samples were then analysed by Fluorescent Activated Cell Sorting (FACS). The measured fluorescence was directly proportional to the incorporated BrdU.
FIG. 6 is a graphic representation of the results of the neurotensin proliferation assay. The columns in the graph represent the mean percentage of BrdU incorporation into PANC-1 cells as a measure for cell proliferation. The two left-hand columns represent the controls of DMSO (basal level of non-stimulated cell proliferation) and DMSO plus 50 nM neurotensin (stimulated cell proliferation). […]

| SMILES | IC50 [1] | decrease in cell viability (MTT) (PANC-1 cells [2]) | increase in caspase 3/7 activity (PANC-1 cells [3]) | IC50 [4] | Neurotensin-stimulated PANC-1 proliferation (BrdU incorporation) (PANC-1 cells [5]) |
| --- | --- | --- | --- | --- | --- |
| NCCNc1nc(-c2cc(Cl)ccc2O)nc2ccccc12 [XX-097, 2-[4-(2-Amino-ethylamino)-quinazolin-2-yl]-4-chloro-phenol] | 0.016 µM |  |  |  |  |
| CC[C@@H](N)CNc1nc(-c2cc(Cl)ccc2O)nc2ccccc12 [XX-032, 2-[4-((R)-2-Amino-butylamino)-quinazolin-2-yl]-4-chloro-phenol] |  | 2 fold | 5 fold | ~4 µM | inhibited to basal levels |

— patent US20090247519A1, “AMINO-ETHYL-AMINO-ARYL (AEAA) COMPOUNDS AND THEIR USE” (priority 2006, published 2009)
